Numbers after ± are expanded uncertainties.
Details: 298.15 K; 101.33 kPa; Liquid

Structure (SMILES)	mass density
CCCCCC[n+]1ccc2ccccc2c1.N#C[S-] [2-hexylisoquinolinium thiocyanate]	1081.34 ± 1.2 kg/m3
CCCCCCCC[n+]1ccc2ccccc2c1.N#C[S-] [2-octylisoquinolinium thiocyanate]	1061.69 ± 1.2 kg/m3

From the NIST ThermoML archive (doi:10.1016/j.fluid.2015.05.003)
